For one test, the target named is T1, muIDO2 (Mus musculus, UniProt Q8R0V5).
T1 sequence (Q8R0V5 1-405): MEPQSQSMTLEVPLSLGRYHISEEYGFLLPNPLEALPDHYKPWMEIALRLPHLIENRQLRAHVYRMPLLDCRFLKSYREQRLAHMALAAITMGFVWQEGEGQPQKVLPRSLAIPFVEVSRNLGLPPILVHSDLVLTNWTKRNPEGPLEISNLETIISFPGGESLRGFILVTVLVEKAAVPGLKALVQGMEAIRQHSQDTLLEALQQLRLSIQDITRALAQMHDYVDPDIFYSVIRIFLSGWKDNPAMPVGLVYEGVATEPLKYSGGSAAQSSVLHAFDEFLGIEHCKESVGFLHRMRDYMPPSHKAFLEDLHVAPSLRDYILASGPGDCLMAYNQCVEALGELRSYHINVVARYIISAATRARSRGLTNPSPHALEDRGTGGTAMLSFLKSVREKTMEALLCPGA
Briefly: kynurenine assay in 293-T-REx cells expressing muIDO2. It is filed as cell-based.

The target of a further test is muIDO1 (Mus musculus, UniProt P28776). Briefly: kynurenine assay in 293-T-REx cells expressing muIDO1. It is filed as cell-based.
Chain of muIDO1 (P28776 whole entry): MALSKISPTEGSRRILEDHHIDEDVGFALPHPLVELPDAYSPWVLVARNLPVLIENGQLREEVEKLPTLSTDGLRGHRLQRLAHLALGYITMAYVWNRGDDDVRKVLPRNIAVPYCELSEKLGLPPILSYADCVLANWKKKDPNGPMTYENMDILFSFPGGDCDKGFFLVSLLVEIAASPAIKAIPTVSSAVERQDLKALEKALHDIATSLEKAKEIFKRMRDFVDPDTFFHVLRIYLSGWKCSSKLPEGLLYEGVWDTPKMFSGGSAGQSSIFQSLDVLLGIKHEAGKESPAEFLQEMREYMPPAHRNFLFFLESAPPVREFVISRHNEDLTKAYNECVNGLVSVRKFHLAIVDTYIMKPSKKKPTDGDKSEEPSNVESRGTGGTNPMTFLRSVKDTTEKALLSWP

Each structure is given as a SMILES string.

For orientation: IC50 means the concentration that gives 50% inhibition. As for `C=CC1=C(C)C2=Cc3c(C=C)c(C)c4[n]3[Zn][n]3c(c(C)c(CCC(=O)O)c3=CC3=NC(=C4)C(C)=C3CCC(=O)O)=CC1=N2` [ZnPP], the IC50 against muIDO2 is 7.1 µM; against muIDO1, 3.3 µM.
